What was measured:
[1] = Plasma levels and pharmacokinetics in monkeys; type: in vivo, cynomolgus monkey (Macaca fascicularis); details: oral, plasma levels after one and 16 doses
Experimental: (§1) Adult cynomolgus monkeys (four per sex per group, Macaca fascicularis monkey, supplied by Charles River BRF Incorporated, Houston, Tex.) were given single daily oral doses (gavage) of the compound of Formula II (30, 100 or 300 mg/kg of body weight) in the form of the above-stated suspension for 16 to 18 days. […] The monkeys were fed with nutritionally adequate amounts of PMI Inc. Certified Primate Diet® #46 (available from PMI Feeds, Incorporated) daily, at least one hour after dosing was completed. Certified monkey treats were offered daily. Tap water was provided ad libitum. Blood was collected and serum chemistry parameters were measured twice pretest and after 14 daily doses (22 hours after the 14th dose).

serum cholesterol [2] = test: Cholesterol lowering properties of the compound of Formula II in rats: serum cholesterol; type: in vivo, rat (Crl:CD(SD)BR VAF/Plus); details: for Group Mean Serum Cholesterol: single daily oral doses (gavage), at necropsy after 15-16 doses; for serum cholesterol (result in words): oral
Experimental: (§2) A homogeneous suspension of the compound of Formula II in aqueous methyl cellulose (aqueous methyl cellulose concentration: 0.4 percent weight/volume) was prepared for these studies and stored at ambient temperature conditions. The amount of the suspension fed to each rat was calculated to provide the desired dosage of the compound of Formula II (see below) for that rat.
(§3) Six-week-old rats (Rat/Crl:CD®(SD)BR VAF/Plus®, supplied by Charles River Laboratories, Kingston, N.Y.; ten rats per sex per group) were given single daily oral doses (via gavage tube) of the compound of Formula II (30, 100 or 300 mg/kg of body weight of the rat) as the above-stated suspension for 15 to 16 days. […] The rats were housed individually in suspended stainless steel wire mesh cages and were fed with a meal of Certified Rodent Diet® 5002 available from PMI® Feeds, Incorporated, St. Louis, Mo. Tap water was provided ad libitum during the study period. Blood was collected at necropsy over two days (after 15-16 doses), and serum chemistry parameters were measured.
(§4) The results obtained at necropsy (after 15-16 doses) are given in Table 1 for both the male and female rats: […]

serum triglyceride = test: Cholesterol lowering properties of the compound of Formula II in rats: serum triglycerides; type: in vivo, rat (Crl:CD(SD)BR VAF/Plus); details: for Group Mean Serum Triglyceride Concentrations: single daily oral doses (gavage)
Experimental: as §2, §3, §4

[3] = Plasma analysis to confirm absorption in rats; type: in vivo, rat (Crl:CD(SD)BR VAF/Plus); details: oral, plasma analysis after one and 14 doses
Experimental: as §3, with “Blood was collected at necropsy over two days (after 15-16 doses), and serum chemistry parameters were measured.” left out

serum cholesterol [4] = test: Cholesterol lowering properties of the compound of Formula II in monkeys: serum cholesterol; type: in vivo, cynomolgus monkey (Macaca fascicularis); details: for % change in group mean serum cholesterol from last pretest to after 14 doses: daily oral (gavage), 22 hours after 14th dose
Experimental: Similar to Example 2, a homogeneous suspension of the compound of Formula II in aqueous methyl cellulose (0.4 percent weight/volume) was prepared for these studies and stored at ambient temperature conditions. The amount of the suspension fed to each monkey was calculated to provide the desired dosage of the compound of Formula II (given below) for that monkey.
as §1
Mild to moderate decreases in serum cholesterol, compared with pretest and concurrent and/or historical control data, occurred in all dosed monkeys. The decreases were generally dose-dependent, except that there was no real difference between mid- and high-dose females.

For `O=C(NCc1ccc(Cc2c[nH]cn2)cc1)Nc1cc(Cl)cc(Cl)c1` [compound of Formula II], the “absorption (result in words)” value [1] was “confirm absorption”, the “Group Mean Serum Cholesterol” value (serum cholesterol [2]; female rats, 30 mg/kg, control 29.7) was 26.5 mg/dL and the “Group Mean Serum Cholesterol” value (serum cholesterol [2]; female rats, 100 mg/kg, control 29.7) was 19.4 mg/dL. For the same compound, the “Group Mean Serum Cholesterol” value (serum cholesterol [2]; female rats, 300 mg/kg, control 29.7) was 16.0 mg/dL, the “serum cholesterol (result in words)” value (serum cholesterol [2]; female rats, 100 or 300 mg/kg, compared with concurrent control) was “Lower serum cholesterol concentrations” and the “Group Mean Serum Cholesterol” value (serum cholesterol [2]; male rats, 30 mg/kg, control 34.7) was 20.9 mg/dL. The “Group Mean Serum Cholesterol” value (serum cholesterol [2]; male rats, 100 mg/kg, control 34.7) was 16.9 mg/dL, the “Group Mean Serum Cholesterol” value (serum cholesterol [2]; male rats, 300 mg/kg, control 34.7) was 12.3 mg/dL and the “serum cholesterol (result in words)” value (serum cholesterol [2]; male rats, 30, 100 or 300 mg/kg) was “dose-dependent lower serum cholesterol”. The “Group Mean Serum Triglyceride Concentrations” value (serum triglyceride; female rats, 30 mg/kg, at necropsy after 15-16 doses, control 22.4) was 20.5 mg/dL, the “Group Mean Serum Triglyceride Concentrations” value (serum triglyceride; female rats, 100 mg/kg, after 15-16 doses, control 22.4, *group mean excludes individuals with values <10, actual mean would be lower) was 13.6 mg/dL and the “Group Mean Serum Triglyceride Concentrations” value (serum triglyceride; female rats, 300 mg/kg, after 15-16 doses, control 22.4, *group mean excludes individuals with values <10, actual mean would be lower) was 16.3 mg/dL. The “serum triglyceride (result in words)” value (serum triglyceride; male and female rats, 100 or 300 mg/kg, oral) was “Lower serum triglyceride concentrations”, the “Group Mean Serum Triglyceride Concentrations” value (serum triglyceride; male rats, 30 mg/kg, at necropsy after 15-16 doses, control 40.7) was 37.2 mg/dL and the “Group Mean Serum Triglyceride Concentrations” value (serum triglyceride; male rats, 100 mg/kg, at necropsy after 15-16 doses, control 40.7) was 27.8 mg/dL. The “Group Mean Serum Triglyceride Concentrations” value (serum triglyceride; male rats, 300 mg/kg, at necropsy after 15-16 doses, control 40.7) was 21.2 mg/dL, the “absorption (result in words)” value [3] was “confirm absorption” and the “cholesterol (result in words)” value (serum cholesterol [4]; all monkeys dosed with 30, 100 or 300 mg/kg, oral) was “mildly to moderately decreased cholesterol”. The “% change in group mean serum cholesterol from last pretest to after 14 doses” value (“% change in group mean serum cholesterol” below) (serum cholesterol [4]; female monkeys, 30 mg/kg, control -03) was -24%, the “% change in group mean serum cholesterol” value (serum cholesterol [4]; female monkeys, 100 mg/kg, control -03, *n=3, excludes No. 22F, sacrificed on Day 9) was -63% and the “% change in group mean serum cholesterol” value (serum cholesterol [4]; female monkeys, 300 mg/kg, control -03) was -59%. The “% change in group mean serum cholesterol” value (serum cholesterol [4]; male monkeys, 30 mg/kg, control +02) was -25%, the “% change in group mean serum cholesterol” value (serum cholesterol [4]; male monkeys, 100 mg/kg, control +02) was -46% and the “% change in group mean serum cholesterol” value (serum cholesterol [4]; male monkeys, 300 mg/kg, control +02) was -61%.
